# Data taken from US11059855B2, “Antimicrobial peptides and methods of making and using same” (priority 2017, dated 2021).
# Assays:
# [1] = previous work; cited from earlier work
# [2] = 3-kDa dextran macromolecule release assay, POPC; type: biochemical; settings: P:L = 1:1000, pH 7 phosphate buffer
# Description: Several different size dextrans were prepared and labelled with both TAMRA and biotin. Conjugated dextran was entrapped in POPC LUVs as described above. External dextran was removed by incubation with immobilized streptavidin. Streptavidin labelled with an Alexa-488 fluorophore was added during the leakage experiment with the peptide as previous described.^5 The sample was then incubated for 3 hr before measuring Alexa-488 fluorescence. A control without added peptide served as the 0% leakage signal and addition of 0.05% vol. Triton X-100 was used to determine 100% leakage.
# [3] = Hemolysis assay; type: cell-based, human; settings: human
# Description: Fresh human red blood cells were obtained from Interstate Blood Bank, Inc., and thoroughly washed in PBS until the supernatant was clear. hRBC concentration was determined using a standard hemocytometer. In hemolysis assays serial dilutions of peptide were prepared, followed by the addition of 2×10^8 hRBC/mL. After incubation for 1 hr at 37° C. the cells were centrifuged and the released hemoglobin was measured by optical absorbance of the heme group (410 nm). Negative control was buffer only (0% lysis), and the positive control was 20 μM melittin and distilled water (100% lysis). The samples were done in triplicate.
# [4] = Circular dichroism secondary structure (Dichroweb), with POPC; type: physicochemical
# Description: (§1) Dichroweb software analyzes the secondary structure of LDKA peptides from circular dichroism spectroscope. The table presents the percentage of each helix and strand structure at different temperature. The data are analyzed using CONTIN-LL method and Reference Set 4 (Optimised for 190-240 nm).
# (§2) Peptide solutions (peptide concentration is 50 μM) were titrated with POPC and POPG LUVs (50, 100, 250, 500, 1000 μM) and the corresponding changes CD spectra collected. Analysis of these spectra using CD tools and Dichroweb provides an ensemble average of the changes in secondary structure in the presence of POPC and POPG LUVs (dichroweb.cryst.bbk.ac.uk), which gives a direct measure of the binding free energies for each peptide.
# [5] = Circular dichroism secondary structure (Dichroweb), with POPG; type: physicochemical
# Description: as §1, §2
# [6] = Membrane selectivity from high-throughput dye leakage screen; type: biochemical; settings: PC = POPC, PG = POPG
# From the text: (§3) This detects and quantifies the release of a small fluorescent dye (ANTS/DPX; MW=˜400 Da) encapsulated in LUVs after addition of library peptides. Neutral POPC LUVs serve as a simple model for mammalian membranes, while charged POPG LUVs mimic bacterial membranes enriched in anionic lipids.
# [7] = 3-kDa dextran macromolecule release assay, POPG; type: biochemical; settings: P:L = 1:1000, pH 7 phosphate buffer
# [8] = Pore-size characterization by 3-kDa dextran release; type: biochemical; settings: ‡Large pore for PG only
# From the text: Eight LDKA peptides with different lipid selectivity and pore sizes were selected from the high-throughput screen and sequenced. […] The most common mutation is L to A, occurred 13 times and in 7 out of the 8 peptides, followed by A to L, which occurred 6 times in 5 peptides, L to D which occurred 3 times in 3 peptides, and L to P that occurred once. Lysine (K) is not favorable to be shown at the position 6, 8, 10, 12, and 13, which is the non-polar face of the helical structure. […] More specifically, the analogs only induce leakage from anionic POPG vesicles have 4-5 leucines, which is less than the analogs that can porate both POPC and POPG vesicles and have 6-7 leucines in their sequences.
# [9] = ANTS/DPX leakage assay, POPC; type: biochemical; settings: P:L = 1:1000, pH 7 phosphate buffer
# Description: (§4) 5 mM ANTS and 12.5 mM DPX were entrapped in 0.1 μm diameter extruded vesicles with lipids. Gel filtration chromatography of Sephadex G-100 (GE Healthcare Life Sciences Inc.) was used to remove external free ANTS/DPX from LUVs with entrapped contents. […] Leakage was measured after 3 hr incubation. 10% Triton was used as the positive control to measure the maximum leakage of the vesicle. Fluorescence emission spectra were recorded using excitation wavelength (Ex: 350 nm) and emission wavelength (Em: 510 nm) for ANTS/DPX using Synergy H1 Hybrid Multi-Mode Reader.
# as §3
# [10] = ANTS/DPX leakage assay, POPG; type: biochemical; settings: P:L = 1:1000, pH 7 phosphate buffer
# Description: as §4, §3
# [11] = Circular dichroism secondary structure (Dichroweb), peptide only; type: physicochemical; settings: 20 °C
# Description: as §1, §2
# [12] = provided by the distributor, GenScript; cited from earlier work
# [13] = test system: Escherichia coli biofilm; assay: Activity against biofilm, E. coli; type: cell-based; settings: 67-150 μM peptide, 3 hr treatment
# Description: Selected analogues were tested with each (13A). Escherichia coli biofilm, (13B). Staphylococcus aureus biofilm, and (13C) Pseudomonas aeruginosa biofilm.
# However, most of the LDKA analogues fail to treat S. aureus and P. aeruginosa biofilms. Only K7H and 7F3 are capable to reduce S. aureus biofilms by ˜50% with 100 μM peptide concentration, and none of the analogues work against P. aeruginosa biofilms (FIGS. 13a-13c).
# [14] = test system: methicillin-resistant Staphylococcus aureus (MRSA); type: cell-based; settings: 75 μM maximum tested; NDA = not determinable
# [15] = test system: ciprofloxacin-resistant E. coli
# Description: “N.D.” means “not determined”.
# Ceftazidime is active on the bacteria's cell wall and interferes with bacterial cell wall formation.^38,39 Ciprofloxacin is able to inhibit DNA gyrase, type II topoisomerase, and topoisomerase IV to separate bacterial DNA and inhibits cell division.^40 Streptomycin and gentamicin are antibiotics that can interrupt and inhibit protein synthesis.^41,42 E. coli strain ATCC 25922 cultures were grown in the presence of each of these antibiotics at elevated concentration for 10 generations.
# [16] = test system: P. aeruginosa; assay: Bacterial minimum inhibitory concentration (MIC), P. aeruginosa; type: cell-based, Pseudomonas aeruginosa; settings: 75 μM maximum tested; NDA = not determinable
# Description: Escherichia colt strain ATCC 25922, Staphylococcus aureus strain ATCC 25923, and Pseudomonas aeruginosa strain ATCC PAO1 were used in this study. Overnight cultures were subcultured to log phase (OD600=0.3-0.6) after which cell counts were determined by measuring the OD600 (OD600 1.0=1.5×10^8 CFU/mL for S. aureus, 5×10^8 CFU/mL for E. colt, and 2.04×10^8 CFU/mL for P. aeruginosa). Bacteria in minimal media mere added to serially diluted peptides and incubated for 3 hr, followed by the addition of full growth media. After overnight incubation, the optical density of the wells was recorded on a plate reader to determine whether they were sterilized (OD<0.08) or were at stationary phase growth (OD600>0.5). Intermediate values, which were rare, were considered positive for growth. Average minimum sterilizing concentrations were calculated from the lowest peptide concentration that sterilized the bacteria in each serial dilution. The samples were done in sextuplet.
substance,measurement,setting,value
"GL5RL5G: polyleucine-based peptide of the acetyl-GLnRLnG-amide family, n=5 (SEQ ID NO: 28) (Ac-GLLLLLRLLLLLG-NH2)",ΔGS→TM,[1],2.1 ± 0.2 kcal/mol
"GL6RL6G: polyleucine-based peptide of the acetyl-GLnRLnG-amide family, n=6 (SEQ ID NO: 29) (Ac-GLLLLLLRLLLLLLG-NH2)",ΔGS→TM,[1],0.5 ± 0.3 kcal/mol
H-GLDDLAKLLLKLAGW-NH2 [Peptide 25B2],"3-kDa Dextran release, POPC",[2],-2%
same,HC50 at 1 hr,[3],35.5 µM
same,"Peptide-POPC, Helix",[4]; 20 °C,80%
same,"Peptide-POPC, Strand",[4]; 20 °C,3%
same,"Peptide-POPC, Helix",[4]; 45 °C,90%
same,"Peptide-POPC, Strand",[4]; 45 °C,1%
same,"Peptide-POPC, Helix",[4]; 70 °C,81%
same,"Peptide-POPC, Strand",[4]; 70 °C,1%
same,"Peptide-POPC, Helix",[4]; 95 °C,61%
same,"Peptide-POPC, Strand",[4]; 95 °C,6%
same,"Peptide-POPG, Helix",[5]; 20 °C,98%
same,"Peptide-POPG, Strand",[5]; 20 °C,0%
same,"Peptide-POPG, Helix",[5]; 45 °C,98%
same,"Peptide-POPG, Strand",[5]; 45 °C,0%
same,"Peptide-POPG, Helix",[5]; 70 °C,93%
same,"Peptide-POPG, Strand",[5]; 70 °C,0%
same,"Peptide-POPG, Helix",[5]; 95 °C,87%
same,"Peptide-POPG, Strand",[5]; 95 °C,1%
same,Membrane selectivity (POPC vs POPG vesicles),[6],Non-selective
same,"3-kDa Dextran release, POPG",[7],100%
same,Pore size,[8],Large‡
same,"ANTS/DPX release, POPC",[9],98%
same,"ANTS/DPX release, POPG",[10],99%
same,"Peptide-only, Helix",[11],67%
same,"Peptide-only, Strand",[11],3%
same,"Solubility, DMSO",[12],15 mg/mL
same,"Solubility, DPBS pH 7.1",[12],<0.1 mg/mL
same,"Solubility, Ultrapure Water",[12],10 mg/mL
same,Elimination of E. coli biofilm,[13],~50%
same,"Minimum Inhibitory Concentration, MRSA",[14],NDA
same,"MIC, ciprofloxacin-resistant E. coli",[15],completely fail
same,"Minimum Inhibitory Concentration, P. aeruginosa",[16],NDA
